Data: patent publication US11771773B2, “Pharmaceutical preparation containing polyethylene gylcol loxenatide and preparation method thereof” (Jiangsu Hansoh Pharmaceutical Group Co., Ltd., priority 2016, dated 2023)

Key:
[1] = system: type 2 diabetes db/db mice; conditions: injected subcutaneously once every three days

For polyethylene glycol loxenatide, the body weight [1] was “reduced”, the “efficacy compared with Exenatide injected subcutaneously twice a day” value [1] was “comparable to that of Exenatide” and the fasting blood glucose [1] was “significantly reduced”. The glucose tolerance [1] was “improved”, the random blood glucose [1] was “significantly reduced” and the serum fructosamine levels [1] was “significantly reduced”. The glucose-dependent insulinotropic function (normal rats) was “Good glucose-dependent insulinotropic function”.
